Data reported in article PMC5855359, “A Statistical Thermodynamic Model for Ligands Interacting With Ion Channels: Theoretical Model and Experimental Validation of the KCNQ2 Channel” (Frontiers in Pharmacology, 2018).

Molecular target: T1, KCNQ2 (Homo sapiens, UniProt O43526)
T1 construct: WT KCNQ2 homotetrameric channel expressed in CHO cells
Assay: whole-cell voltage clamp in transfected CHO cells, concentration-response of outward current potentiation
Type: cell-based

T1 sequence (O43526 whole entry): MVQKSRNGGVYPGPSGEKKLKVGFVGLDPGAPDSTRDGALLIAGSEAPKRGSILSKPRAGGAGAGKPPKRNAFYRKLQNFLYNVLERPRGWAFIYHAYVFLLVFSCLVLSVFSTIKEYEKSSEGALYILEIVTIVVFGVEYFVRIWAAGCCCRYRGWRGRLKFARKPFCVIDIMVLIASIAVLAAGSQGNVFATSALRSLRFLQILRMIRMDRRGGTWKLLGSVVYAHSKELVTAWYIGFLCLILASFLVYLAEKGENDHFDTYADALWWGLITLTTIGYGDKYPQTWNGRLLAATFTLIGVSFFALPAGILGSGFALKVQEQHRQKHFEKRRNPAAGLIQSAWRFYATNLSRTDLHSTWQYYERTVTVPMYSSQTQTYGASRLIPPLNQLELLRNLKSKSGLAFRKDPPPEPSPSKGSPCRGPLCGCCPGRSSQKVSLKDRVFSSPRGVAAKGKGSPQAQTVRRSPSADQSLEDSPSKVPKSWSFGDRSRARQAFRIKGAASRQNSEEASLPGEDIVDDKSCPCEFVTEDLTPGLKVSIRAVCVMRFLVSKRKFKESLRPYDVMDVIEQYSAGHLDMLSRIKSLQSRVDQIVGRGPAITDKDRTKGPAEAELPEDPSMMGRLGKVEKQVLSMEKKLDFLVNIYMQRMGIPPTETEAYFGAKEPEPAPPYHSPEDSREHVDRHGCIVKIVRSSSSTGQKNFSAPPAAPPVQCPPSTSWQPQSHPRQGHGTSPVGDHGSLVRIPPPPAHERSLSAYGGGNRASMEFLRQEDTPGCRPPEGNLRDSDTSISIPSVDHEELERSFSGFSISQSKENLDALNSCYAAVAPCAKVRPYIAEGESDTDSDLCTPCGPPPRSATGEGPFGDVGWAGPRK

## O=C(Nc1ccc(Cl)nc1)c1ccc(F)cc1 [ztz240, N-(6-chloro-pyridin-3-yl)-4-fluorobenzamide]
  EC50: ~5.8 µM
